According to patent US9840522B2, “Multi-modal bioprobe for bladder cancer imaging and photodynamic therapy” (Hong Kong Baptist University, priority 2014, dated 2017):

Test system: xenograft tumor (T24 bladder cancer cells)
Assay: In vivo magnetic resonance imaging after tail vein injection
Parameters: species or system mice
Conditions: MRI immediately
Protocol: After tail vein injection of Gd-3-R1 and Gd-DOTA into the mice, MRI experiment is conducted immediately.

O=C([O-])CN1CCN(CC(=O)[O-])CCN(CC(=O)O)CCN(CC(=O)[O-])CC1.[Gd+3] [Gd-DOTA]
MRI contrast effect on xenograft tumor: enhances the whole body signal without selectivity toward the tumor
